Measured values as given in ChEMBL document CHEMBL1201862, “PubChem BioAssay data set” (2004).
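In this assay, cells in 96-well plates receive the compound at five concentrations for 48 hours. Endpoints are linearly interpolated between the surrounding concentrations. Abbreviation: GI50, concentration required for 50% inhibition of growth.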 Calls of active or inactive are those of the source. Rule as the data show it: active = GI50 up to about 1.1 µM and inactive = higher.

Key:
Experiment in all cases: growth of human tumour cells (NCI), 48 h
SF-295 = tested on: SF-295
NCI-H460 = tested on: NCI-H460
BT-549 = tested on: BT-549
A498 = tested on: A498
COLO 205 = tested on: COLO 205
A549 = tested on: A549
SF-268 = tested on: SF-268
UO-31 = tested on: UO-31
OVCAR-3 = tested on: OVCAR-3
SN12C = tested on: SN12C
ACHN = tested on: ACHN
MDA-N = tested on: MDA-N
HT-29 = tested on: HT-29
HOP-62 = tested on: HOP-62
Malme-3M = tested on: Malme-3M
DU-145 = tested on: DU-145
EKVX = tested on: EKVX
HOP-92 = tested on: HOP-92
CCRF-CEM = tested on: CCRF-CEM
SR = tested on: SR
OVCAR-8 = tested on: OVCAR-8
786-0 = tested on: 786-0
T47D = tested on: T47D
OVCAR-4 = tested on: OVCAR-4
SK-MEL-28 = tested on: SK-MEL-28
MDA-MB-231 = tested on: MDA-MB-231
MCF7 = tested on: MCF7
NCI-H522 = tested on: NCI-H522
K562 = tested on: K562
SF-539 = tested on: SF-539
Hs-578T = tested on: Hs-578T
UACC-257 = tested on: UACC-257
UACC-62 = tested on: UACC-62
SK-OV-3 = tested on: SK-OV-3
NCI-H226 = tested on: NCI-H226
LOX IMVI = tested on: LOX IMVI
MDA-MB-435 = tested on: MDA-MB-435
HCT-15 = tested on: HCT-15
HL-60 = tested on: HL-60
SK-MEL-5 = tested on: SK-MEL-5
OVCAR-5 = tested on: OVCAR-5
CAKI-1 = tested on: CAKI-1
SNB-19 = tested on: SNB-19
KM12 = tested on: KM12
NCI-H23 = tested on: NCI-H23
HCC 2998 = tested on: HCC 2998
SW-620 = tested on: SW-620
MOLT-4 = tested on: MOLT-4
NCI/ADR-RES = tested on: NCI/ADR-RES
SNB-75 = tested on: SNB-75
TK-10 = tested on: TK-10
SK-MEL-2 = tested on: SK-MEL-2
M14 = tested on: M14
U-251 = tested on: U-251
PC-3 = tested on: PC-3
HCT-116 = tested on: HCT-116
IGROV-1 = tested on: IGROV-1
RPMI-8226 = tested on: RPMI-8226
RXF 393 = tested on: RXF 393

For O=C(COc1ccccc1)N(C(=O)N1CCN(c2ccccc2)CC1)S(=O)(=O)c1ccccc1, the GI50 (SF-295) was > 100 µM (inactive), the GI50 (NCI-H460) was 71.9 µM (inactive) and the GI50 (BT-549) was > 100 µM (inactive). For the same compound, the GI50 (A498) was > 100 µM (inactive), the GI50 (COLO 205) was > 100 µM (inactive) and the GI50 (A549) was > 100 µM (inactive). The GI50 (SF-268) was 60.8 µM (inactive), the GI50 (UO-31) was 94.6 µM (inactive) and the GI50 (OVCAR-3) was 62.4 µM (inactive). The GI50 (SN12C) was 53 µM (inactive), the GI50 (ACHN) was > 100 µM (inactive) and the GI50 (MDA-N) was 62.4 µM (inactive). For the same compound, the GI50 (HT-29) was 43.5 µM (inactive), the GI50 (HOP-62) was 72.8 µM (inactive) and the GI50 (Malme-3M) was > 100 µM (inactive). The GI50 (DU-145) was 98.6 µM (inactive), the GI50 (EKVX) was > 100 µM (inactive) and the GI50 (HOP-92) was > 100 µM (inactive). The GI50 (CCRF-CEM) was 22.1 µM (inactive), the GI50 (SR) was 21.7 µM (inactive) and the GI50 (OVCAR-8) was 35.2 µM (inactive). For the same compound, the GI50 (786-0) was 44.2 µM (inactive), the GI50 (T47D) was 34.8 µM (inactive) and the GI50 (OVCAR-4) was > 100 µM (inactive). For the same compound, the GI50 (SK-MEL-28) was > 100 µM (inactive), the GI50 (MDA-MB-231) was 52 µM (inactive) and the GI50 (MCF7) was 45.9 µM (inactive). For the same compound, the GI50 (NCI-H522) was 31.9 µM (inactive), the GI50 (K562) was 33.8 µM (inactive) and the GI50 (SF-539) was > 100 µM (inactive). For the same compound, the GI50 (Hs-578T) was > 100 µM (inactive), the GI50 (UACC-257) was > 100 µM (inactive) and the GI50 (UACC-62) was > 100 µM (inactive). The GI50 (SK-OV-3) was > 100 µM (inactive), the GI50 (NCI-H226) was 57.4 µM (inactive) and the GI50 (LOX IMVI) was 77.4 µM (inactive). The GI50 (MDA-MB-435) was > 100 µM (inactive), the GI50 (HCT-15) was 47.5 µM and the GI50 (HL-60) was 83.4 µM (inactive). The GI50 (SK-MEL-5) was > 100 µM (inactive), the GI50 (OVCAR-5) was > 100 µM (inactive) and the GI50 (CAKI-1) was > 100 µM (inactive). The GI50 (SNB-19) was 83.2 µM (inactive), the GI50 (KM12) was > 100 µM (inactive) and the GI50 (NCI-H23) was > 100 µM (inactive). For the same compound, the GI50 (HCC 2998) was > 100 µM (inactive), the GI50 (SW-620) was 42.5 µM (inactive) and the GI50 (MOLT-4) was 25.4 µM (inactive). The GI50 (NCI/ADR-RES) was 56.8 µM (inactive), the GI50 (SNB-75) was 33.9 µM (inactive) and the GI50 (TK-10) was > 100 µM (inactive). For the same compound, the GI50 (SK-MEL-2) was > 100 µM (inactive), the GI50 (M14) was > 100 µM (inactive) and the GI50 (U-251) was 30.8 µM (inactive). For the same compound, the GI50 (PC-3) was 50.5 µM (inactive) and the GI50 (HCT-116) was 44 µM (inactive).
With CC(C)(C)OC(=O)NC(Cc1ccccc1)OCc1ccccc1 (centres undefined) the GI50 (SF-295) was 16.6 µM (inactive), the GI50 (NCI-H460) was 21.3 µM (inactive) and the GI50 (BT-549) was 23.3 µM (inactive). The GI50 (COLO 205) was 35 µM (inactive), the GI50 (A549) was 17.6 µM (inactive) and the GI50 (SF-268) was 18.4 µM (inactive). The GI50 (UO-31) was 17.1 µM (inactive), the GI50 (OVCAR-3) was 23.2 µM (inactive) and the GI50 (SN12C) was 26.1 µM (inactive). The GI50 (ACHN) was 19.4 µM (inactive), the GI50 (MDA-N) was 19.3 µM (inactive) and the GI50 (HT-29) was 21.1 µM (inactive). The GI50 (HOP-62) was 18.9 µM (inactive), the GI50 (Malme-3M) was 23.6 µM (inactive) and the GI50 (DU-145) was 20.1 µM (inactive). The GI50 (EKVX) was 17.4 µM (inactive), the GI50 (SR) was 30.7 µM (inactive) and the GI50 (IGROV-1) was > 10 µM (inactive). For the same compound, the GI50 (OVCAR-8) was 20.1 µM (inactive), the GI50 (786-0) was 17.2 µM (inactive) and the GI50 (RPMI-8226) was 26 µM (inactive). For the same compound, the GI50 (T47D) was 14.6 µM (inactive), the GI50 (SK-MEL-28) was 17.9 µM (inactive) and the GI50 (MDA-MB-231) was 15.3 µM (inactive). For the same compound, the GI50 (MCF7) was 19.7 µM (inactive), the GI50 (RXF 393) was 20.8 µM (inactive) and the GI50 (NCI-H522) was 11.4 µM (inactive). The GI50 (K562) was 20.6 µM (inactive), the GI50 (SF-539) was 21.4 µM (inactive) and the GI50 (Hs-578T) was 23.3 µM (inactive). For the same compound, the GI50 (UACC-257) was > 10 µM (inactive), the GI50 (UACC-62) was 15 µM (inactive) and the GI50 (SK-OV-3) was 17.6 µM (inactive). For the same compound, the GI50 (NCI-H226) was 18.7 µM (inactive), the GI50 (MDA-MB-435) was 19.4 µM (inactive) and the GI50 (HCT-15) was 19.4 µM. The GI50 (SK-MEL-5) was 15.5 µM (inactive), the GI50 (OVCAR-5) was 24 µM (inactive) and the GI50 (CAKI-1) was 19.6 µM (inactive). The GI50 (SNB-19) was 19.5 µM (inactive), the GI50 (KM12) was 19.5 µM (inactive) and the GI50 (NCI-H23) was 16 µM (inactive). For the same compound, the GI50 (HCC 2998) was 23.9 µM (inactive), the GI50 (SW-620) was 17.2 µM (inactive) and the GI50 (MOLT-4) was 17.4 µM (inactive). For the same compound, the GI50 (NCI/ADR-RES) was 26.7 µM (inactive), the GI50 (SNB-75) was 12.2 µM (inactive) and the GI50 (TK-10) was 19 µM (inactive). For the same compound, the GI50 (SK-MEL-2) was 29.4 µM (inactive), the GI50 (M14) was 17.9 µM (inactive) and the GI50 (U-251) was > 10 µM (inactive). The GI50 (PC-3) was 13.5 µM (inactive) and the GI50 (HCT-116) was 17.9 µM (inactive).
